# Experimental data published in paper PMC7023064, “Design, Synthesis, and Evaluation of Novel 2-Methoxyestradiol Derivatives as Apoptotic Inducers through an Intrinsic Apoptosis Pathway” (Biomolecules, 2020).
# How the values were obtained:
# MCF-7 cells [1] = test: Cell apoptosis analysis (Annexin V-APC/7-AAD double staining); assay type: cell-based, human; conditions: 72 h
# Experimental: MCF-7 cells at a density of 2 × 10^5 cells/well were seeded on each well of 6-well plates and allowed to grow overnight. Then the cells were treated with compound 11/12a (5, 10, and 20 μM) for 72 h, while cells without treatment were used as control group. The treated cells were trypsinized and washed with cold PBS twice, then centrifuged at 2000 rpm for 5 min and resuspended in 500 μL annexin V binding buffer. 5 μL of Annexin V- allophycocyanin (APC) was added, and the mixture was incubated in the dark at 25 °C for 15 min. Then, 5 μL of 7-AAD was added just prior to acquisition. Apoptosis was analyzed by Annexin V-APC and 7-AAD double staining by flow cytometry (FACS Calibur Becton-Dickinson, San Jose, Califormia, USA).
# MCF-7 cells [2] = test: Western blotting of apoptosis proteins; assay type: cell-based, human; conditions: 0, 5, 10, and 20 µM, 72 h, β-actin as control
# Experimental: After the treatment of MCF-7 cells with compound 11/12a (0, 5, 10, and 20 μM) for 72 h, the total proteins of MCF-7 cells were extracted and their concentrations were balanced to the same level by BCA protein assay reagent (KGP902, KeyGen Biotech Co. Ltd., Nanjing, China), followed by 8 min of protein denaturation with SDS loading buffer at 100 °C. Proteins were separated by sodium dodecyl sulfate-polyacrylamide electrophoresis (SDS-PAGE) and transferred onto polyvinylidene fluoride (PVDF) membranes, which were blocked with 5 mL of 5% fat-free dry milk in 1× Tris-buffered saline (TBS) containing 0.05% Tween 20 for 2 h. Then the membranes were incubated with Apaf-1 (Abcam, no: ab234436), Bax (Abcam, no: ab32503), Bcl-2 (Abcam, no: ab692), Bcl-xL (Abcam, no: ab32370), caspase-3 (Abcam, no: ab184787), caspase-8 (Abcam, no: ab25901), caspase-9 (Abcam, no: ab219590), cytochrome c (Abcam, no: ab133504), and β-actin (Abcam, no: ab8226) antibodies at 4 °C overnight, followed by treatment with secondary horseradish-peroxidase-conjugated anti-rabbitIgG (KeyGen Biotech Co. Ltd., no: KGAA35) for 2 h. Membranes were finally scanned in a ChemiDoc MP Imaging System (Bio-Rad) after 2 min incubation in Clarity Western ECL Substrate (Bio-Rad).
# MCF-7 cells [3] = test: Mitochondrial membrane potential analysis (JC-1, flow cytometry); assay type: cell-based, human; conditions: 72 h, JC-1 (lower right quadrant)
# Experimental: MCF-7 cells were incubated in triplicate and treated with compound 11/12a for 72 h. The cells were washed with PBS and stained with JC-1 dye (Keygen, KGA601) under dark conditions according to the manufacturer’s instructions. After incubation, the cells were washed twice with PBS, and the percentage of cells with collapsed or healthy mitochondrial membrane potentials (MMP) was monitored by flow cytometry analysis (FACS Calibur Becton-Dickinson, San Jose, California, USA).
# [4] = system: MCF-7 breast cancer cells; test: Real-time polymerase chain reaction of apoptosis genes; assay type: cell-based, human; conditions: 5, 10, and 20 μM, GAPDH as control
# Experimental: RNA was isolated using Trizol Reagent (Invitrogen, Carlsbad, California, USA). cDNA was made via the manufacturer’s instructions with the first chain of a cDNA synthesizing kit (Fermentas, Lithuania). Real-time polymerase chain reaction (RT-PCR) was performed on a Da An Gene DA7600 Real Time machine using Da An Gene incorporation (ZhongShan, China). The 2^−ΔΔCT method was used to calculate the relative levels of gene expression using Da An Gene DA7600 QPCR software v3.00 (Da An Gene). The GAPDH (human) expression was used as the internal control. A standard melting-curve cycle was used to confirm the quality of amplification. The reactions were performed in triplicate for each sample. The gene-specific primers were designed with the Primer5 BLAST software by GenScript Co., Ltd. (Nanjing, China): • 1 GAPDH (human): primer (122 bp), • Sense primer: 5′ […] 3’ • Antisense primer: 5′ […] 3′ • 2 Apaf-1 (human): primer (134 bp), • Sense primer: 5′ […] 3′ • Antisense primer: 5′ […] 3′ • 3 Bax (human): primer (112 bp), • Sense primer: 5 ′TTGCTTCAGGGTTTCATCC 3′ • Antisense primer: 5′ […] 3′ • 4 Bcl-2 (human): primer (116 bp), • Sense primer: 5′ […] 3′ • Antisense primer: 5′ […] 3′ • 5 Bcl-xL (human): primer (124 bp), • Sense primer: 5′ […] 3′ • Antisense primer: 5′ […] 3′ • 6 Caspase-3 (human): primer (131 bp), • Sense primer: 5′ […] 3′ • Antisense primer: 5′ […] 3′ • 7 Caspase-8 (human): primer (122 bp), • Sense primer: 5′ […] 3′ • Antisense primer: 5′ […] 3′ • 8 Caspase-9 (human): primer (136 bp), • Sense primer: 5′ […] 3′ • Antisense primer: 5′ […] 3′ • 9 Cytochrome c (human): primer (127 bp), • Sense primer: 5′ […] 3′ • Antisense primer: 5′ […] 3′
# MCF-7 cells [5] = test: Hoechst 33258 staining; assay type: cell-based, human; conditions: 0, 5, 10, and 20 μM, 72 h; at higher concentrations
# Experimental: The nuclear morphological changes and apoptotic effects induced by compound 11/12a were detected using Hoechst 33,258 staining. Cells grown on a sterile cover slip were treated with 11/12a for 72 h in six-well tissue culture plates. Cells were collected and mounted on a slide, fixed for 30 min with 4% paraformaldehyde, and washed three times with PBS. Then, cells were stained with Hoechst 33,258 (2 mg/mL in PBS) for 10 min at room temperature in the dark. The cells were subsequently washed three times with PBS and observed with a fluorescence microscope.
Molecule,melting point [°C],total early and late apoptotic cells (MCF-7 cells [1]; 5 μM) [%],total early and late apoptotic cells (MCF-7 cells [1]; 10 μM) [%],total early and late apoptotic cells (MCF-7 cells [1]; 20 μM) [%],"protein expressions of Apaf-1, Bax, caspase-3, caspase-8, caspase-9, and cytochrome c (MCF-7 cells [2])",protein expressions of Bcl-2 and Bcl-xL (MCF-7 cells [2]),MCF-7 cells with collapsed MMP (MCF-7 cells [3]; 5 μM) [%],MCF-7 cells with collapsed MMP (MCF-7 cells [3]; 10 μM) [%],MCF-7 cells with collapsed MMP (MCF-7 cells [3]; 20 μM) [%],"mRNA expression levels of Apaf-1, Bax, caspase-3, caspase-8, caspase-9, and cytochrome c [4]",mRNA expression levels of Bcl-2 and Bcl-xL [4],Hoechst 33258 fluorescence / cell morphology (MCF-7 cells [5])
"COc1cc2c(cc1O)CC[C@@H]1[C@@H]2CC[C@]2(C)[C@@H](OCCCCCCCCn3c(=O)ccn([C@@H]4O[C@H](CO)[C@@H](O)[C@H]4O)c3=O)CC[C@@H]12 [Compound 11, 17 β-[8-(1-β-D-Ribofuranosyluracil-3-yl)-Octyloxy]-2-Methoxy-Estra-1,3,5(10)-Triene-3-ol]",95 to 96,13.21,33.24,67.74,increased in a dose-dependent manner,obviously decreased,7.95,14.13,38.88,upregulated,downregulated,stronger blue fluorescence
"17 β-[6-(Uracil-3-yl)-Hexyloxy]-2-Methoxy-Estra-1,3,5(10)-Triene-3-ol [Compound 12a]",,12.1,30.86,67.28,increased in a dose-dependent manner,obviously decreased,8.78,14.56,39.75,upregulated,downregulated,stronger blue fluorescence
